Assay results published in patent publication US20230203023A1, “SALT AND CRYSTAL FORMS OF GLP-1R AGONISTS AND USES THEREOF” (QILU REGOR THERAPEUTICS INC., priority 2020, published 2023).
Where a name gives a salt, the structure may show the parent alone.

Key:
Format in all cases: physicochemical
[1] = Solid stability evaluation (I/II), XRPD and HPLC
In short: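 Tris salt Form A and amorphous free form of Compound I, and Compound II citrate salt Form A, Tris salt Form B and free form, stored as solids at 60° C. for 1 day and at 25° C./60% RH or 40° C./75% RH for 1 week. Physical form checked by XRPD and chemical stability by HPLC.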

[2] = Solid stability evaluation (II/II), HPLC in triplicate
Procedure: The chemical stability of 1:1 Compound II Citrate Salt (Form A) and 1:1 Compound II Tris Salt (Form B) was further evaluated at solid state, samples were stored under the ambient condition or 40° C./75% RH for 1 day and 3 days, respectively.

[3] = Solution stability evaluation in SGF (pH 1.8) and pH 8.0 buffer at RT
Procedure: Weigh 100 mg of sodium chloride and 50 mg of Triton X-100 into a 50-mL volumetric flask. Add appropriate volume of purified water and sonicate until all solids are completely dissolved. Add about 68 μL of 12 M HCl and sufficient purified water closely to the target volume and adjust to pH 1.8. Dilute to volume with purified water, mix well and check the pH with a pH meter.
Add sufficient purified water closely to the target volume and adjust to pH 8.0. Dilute to volume with purified water, mix well and check the pH with a pH meter. […]
Solution stability was evaluated for 1:1 Compound II Citrate Salt (Form A) and 1:1 Compound II Tris Salt (Form B) in SGF (pH 1.8) and pH 8.0 buffer at RT. Clear solutions were prepared at two concentrations (0.01 mg/mL, 0.05 mg/mL) and then placed at RT for 6 hours, 1/5 days or 6 hours, 1/3/7 days. […] The HPLC purity and pH value were tested and the results were summarized from Table 7-3-1 to Table 7-3-4.

[4] = Hygroscopicity, DVS test; conditions: 25° C.
Procedure: DVS was measured via a SMS (Surface Measurement Systems) DVS Intrinsic. The relative humidity at 25° C. were calibrated against deliquescence point of LiCl, Mg(NO3)2 and KCl.
To investigate the solid form stability as a function of humidity, DVS isotherm plot of 1:1 Compound I Tris Salt (Form A) was collected between 0% RH and 95% RH at 25° C. […] Considering the 1:1 Compound I Tris Salt (Form A) is a hydrate and may dehydrate under low humidity, DVS was also tested at 20 and 30° C. to further confirm the suitable storage condition and avoid dehydration. […] Combing the VH-XRPD and DVS results: the condition of 20-30° C. and relative humidity ≥40% RH is suitable for the storage of 1:1 Compound I Tris Salt (Form A).
To investigate the solid form stability as a function of humidity, DVS isotherm plots of 1:1 Compound II Citrate Salt (Form A) and 1:1 Compound II Tris Salt (Form B) were collected at 25° C. between 0% RH and 95% RH. […] The water uptake increased by 0.97% from 10% to 80% RH and a platform was observed.

[5] = 0.01 mg/mL, pH 1.8 (SGF), Initial
[6] = 0.01 mg/mL, pH 1.8 (SGF), RT, 6 hours
[7] = 0.01 mg/mL, pH 8.0 (50 mM phosphate), Initial
[8] = 0.01 mg/mL, pH 8.0 (50 mM phosphate), RT, 6 hours
[9] = 0.05 mg/mL, pH 1.8 (SGF), Initial
[10] = 0.05 mg/mL, pH 1.8 (SGF), RT, 6 hours
[11] = 0.05 mg/mL, pH 8.0 (50 mM phosphate), Initial
[12] = 0.05 mg/mL, pH 8.0 (50 mM phosphate), RT, 6 hours
[13] = 1 day, 0.01 mg/mL, pH 1.8 (SGF), RT
[14] = 1 day, 0.01 mg/mL, pH 8.0 (50 mM phosphate), RT
[15] = 1 day, 0.05 mg/mL, pH 1.8 (SGF), RT
[16] = 1 day, 0.05 mg/mL, pH 8.0 (50 mM phosphate), RT
[17] = 5 days, 0.01 mg/mL, pH 1.8 (SGF), RT
[18] = 5 days, 0.01 mg/mL, pH 8.0 (50 mM phosphate), RT
[19] = 5 days, 0.05 mg/mL, pH 1.8 (SGF), RT
[20] = 5 days, 0.05 mg/mL, pH 8.0 (50 mM phosphate), RT

SMILES: N#Cc1ccc(COc2cccc(C3=CCN(Cc4nc5ccc(C(=O)O)cc5n4C[C@@H]4CCO4)CC3)n2)c(F)c1 [Citrate salt Form A, (S)-2-((6-((4-cyano-2-fluorobenzyl)oxy)-3′,6′-dihydro-[2,4′-bipyridin]-1′(2′H)-yl)methyl)-1-(oxetan-2-ylmethyl)-1H-benzo[d]imidazole-6-carboxylic acid]
- Form change ([1]; 25° C./60% RH (open), 1 week): No
- Observation ([1]; 25° C./60% RH (open), 1 week): White
- Purity (area %) ([1]; 25° C./60% RH (open), 1 week): 97.58 area %
- Form change ([1]; 40° C./75% RH (open), 1 week): No
- Observation ([1]; 40° C./75% RH (open), 1 week): White
- Purity (area %) ([1]; 40° C./75% RH (open), 1 week): 97.14 area %
- Chemical stability compared with free form ([1]; 60° C. 1 day, 25° C./60% RH or 40° C./75% RH 1 week): better chemical stability
- Form change ([1]; 60° C. (capped), 1 day): No
- Observation ([1]; 60° C. (capped), 1 day): White
- Purity (area %) ([1]; 60° C. (capped), 1 day): 97.50 area %
- Form change ([1]; Initial): No
- Observation ([1]; Initial): White
- Purity (area %) ([1]; Initial): 97.73 area %
- Ave. Purity (area %) ([2]; 40° C./75% RH (open), 1 day): 97.8 area %
- Ave. Purity (area %) ([2]; 40° C./75% RH (open), 3 days): 97.9 area %
- Ave. Purity (area %) ([2]; Ambient condition (open), 1 day): 97.8 area %
- Ave. Purity (area %) ([2]; Ambient condition (open), 3 days): 97.8 area %
- Ave. Purity (area %) ([2]; Initial): 97.9 area %
- Purity (% area) [3, 5]: 100.00 % area
- pH [3, 5]: 1.8
- Purity (% area) [3, 6]: 100.00 % area
- Purity vs. Initial (%) [3, 6]: 100.0%
- pH [3, 6]: 1.8
- Purity (% area) [3, 7]: 98.67 % area
- pH [3, 7]: 8.0
- Purity (% area) [3, 8]: 97.89 % area
- Purity vs. Initial (%) [3, 8]: 99.2%
- pH [3, 8]: 8.0
- Purity (% area) [3, 9]: 97.84 % area
- pH [3, 9]: 1.8
- Purity (% area) [3, 10]: 97.54 % area
- Purity vs. Initial (%) [3, 10]: 99.7%
- pH [3, 10]: 1.8
- Purity (% area) [3, 11]: 98.22 % area
- pH [3, 11]: 8.0
- Purity (% area) [3, 12]: 98.03 % area
- Purity vs. Initial (%) [3, 12]: 99.8%
- pH [3, 12]: 8.0
- Purity (% area) [3, 13]: 98.51 % area
- Purity vs. Initial (%) [3, 13]: 98.5%
- pH [3, 13]: 1.8
- Purity (% area) [3, 14]: 97.36 % area
- Purity vs. Initial (%) [3, 14]: 98.7%
- pH [3, 14]: 8.0
- Purity (% area) [3, 15]: 96.61 % area
- Purity vs. Initial (%) [3, 15]: 98.7%
- pH [3, 15]: 1.8
- Purity (% area) [3, 16]: 97.95 % area
- Purity vs. Initial (%) [3, 16]: 99.7%
- pH [3, 16]: 8.0
- Purity (% area) [3, 17]: 94.05 % area
- Purity vs. Initial (%) [3, 17]: 94.1%
- pH [3, 17]: 1.9
- Purity (% area) [3, 18]: 97.14 % area
- Purity vs. Initial (%) [3, 18]: 98.5%
- pH [3, 18]: 7.9
- Purity (% area) [3, 19]: 92.31 % area
- Purity vs. Initial (%) [3, 19]: 96.1%
- pH [3, 19]: 1.8
- Purity (% area) [3, 20]: 97.75 % area
- Purity vs. Initial (%) [3, 20]: 99.5%
- pH [3, 20]: 8.0
- Form change after DVS test [4]: No
- Water uptake (80% RH) [4]: 0.71%
- Water uptake (80% RH) ([4]; listed as 1:1 Compound II Citrate Salt (Form A)): 0.71%
- Hygroscopicity ([4]; according to Chinese Pharmacopeia 2015): Slightly hygroscopic
